Laboratory results taken from patent US11370847B2, “Single domain antibodies directed against intracellular antigens” (Singh Biotechnology, LLC, priority 2014, dated 2022).
Several values for one entry are separate records, joined by “and”; a condition that tells them apart may be missing. Equal values may be shown once. Read-outs that look alike come from different tables or passages of the source.

Legend:
[1] = test system: MDA-MB-231 xenograft; conditions: for Individual Tumor Measurements: listed as anti-STAT3 bacterial VHH13
[2] = test system: EBOv (Makon); conditions: Hela; EBOV (Makona); 48 hours
[3] = test system: DU145 xenograft; test: DU145 prostate cancer xenograft model; conditions: SBT-100 5 mg/kg bw i.p. BID×14
[4] = test system: VEGF-A; test: VEGF-A ELISA in ARPE-19 retinal cells; assay type: cell-based, human; conditions: Experiment 2; for pg VEGF-A per μg protein: single wells
[5] = test system: DU145 cells; test: MTT proliferation assay, DU145; assay type: cell-based, human; conditions: 50 μg, single experiments, listed as Anti-STAT3 Bacterial VHH13
[6] = test system: STAT3; test: STAT3 reporter GloResponse SIE-luc2P/HEK293 assay, IL-6 induction; assay type: cell-based; conditions: for decrease in RLU: highest concentration (55.8 μg/mL);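 for all read-outs here: SIE-luc2P/HEK293 reporter cells stimulated with IL-6 at 40 ng/mL (EC80) after pretreatment, luciferase luminescence (RLU) read the following day, triplicate wells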
[7] = Group 3, 2 mg/kg IP BID×14, day 42 (7/15/15)
[8] = Group 4, 2 mg/kg IP QD×14, day 20 (6/23/15)
[9] = Group 4, 2 mg/kg IP QD×14, day 23 (6/26/15)
[10] = Group 4, 2 mg/kg IP QD×14, day 26 (6/29/15)
[11] = Group 4, 2 mg/kg IP QD×14, day 29 (7/2/15)
[12] = Group 4, 2 mg/kg IP QD×14, day 33 (7/6/15)
[13] = Group 4, 2 mg/kg IP QD×14, day 36 (7/9/15)
[14] = Group 4, 2 mg/kg IP QD×14, day 42 (7/15/15)

## anti-STAT3 VHH13: anti-STAT3 single-domain antibody, SEQ ID NO:3; bacterially produced, referred to as SBT-100
[1]; [7]
  % Inhibition Mean: 83.89%
  % Inhibition Median: 85.17%
  Tumor Mean Absolute: 41.15 mm^3
  Tumor Median Absolute: 35.89 mm^3
  Individual Tumor Measurements: 18.94 mm^3 and 73.89 mm^3 and 51.30 mm^3 and 20.48 mm^3
[1]; Group 3: 2 mg/kg bw IP BID×14
  growth delay: 9.52 days
  mean growth inhibition: 75.2
  mean tumor size (±S.E.) at termination (day 42): 41.15±13.21
  mean tumor size (±SE) at day 14 of dosing: 58.27±22.54
[1]; Group 3: 2 mg/kg bw IP BID×14, (tumor regression)
  % treatment/control: −54.4%
[1]; Group 3: 2 mg/kg bw IP BID×14, control 20.56 days
  tumor doubling time: 30.07 days
[1]; [8]
  % Inhibition Mean: −14.18%
  % Inhibition Median: −1.80%
  Tumor Mean Absolute: 105.60 mm^3
  Tumor Median Absolute: 100.88 mm^3
  Individual Tumor Measurements: 88.56 mm^3 and 78.73 mm^3 and 113.20 mm^3 and 141.91 mm^3
[1]; [9]
  % Inhibition Mean: 32.37%
  % Inhibition Median: 16.23%
  Tumor Mean Absolute: 93.99 mm^3
  Tumor Median Absolute: 96.82 mm^3
  Individual Tumor Measurements: 108.35 mm^3 and 51.51 mm^3 and 85.29 mm^3 and 130.82 mm^3
[1]; [10]
  % Inhibition Mean: 54.06%
  % Inhibition Median: 43.65%
  Tumor Mean Absolute: 79.20 mm^3
  Tumor Median Absolute: 78.40 mm^3
  Individual Tumor Measurements: 105.80 mm^3 and 54.20 mm^3 and 69.30 mm^3 and 87.49 mm^3
[1]; [11]
  % Inhibition Mean: 46.13%
  % Inhibition Median: 38.19%
  Tumor Mean Absolute: 105.54 mm^3
  Tumor Median Absolute: 103.05 mm^3
  Individual Tumor Measurements: 102.94 mm^3 and 70.39 mm^3 and 103.16 mm^3 and 145.68 mm^3
[1]; [12]
  % Inhibition Mean: 40.66%
  % Inhibition Median: 36.92%
  Tumor Mean Absolute: 131.44 mm^3
  Tumor Median Absolute: 129.05 mm^3
  Individual Tumor Measurements: 183.39 mm^3 and 84.29 mm^3 and 103.20 mm^3 and 154.89 mm^3
[1]; [13]
  % Inhibition Mean: 55.94%
  % Inhibition Median: 54.32%
  Tumor Mean Absolute: 105.10 mm^3
  Tumor Median Absolute: 102.39 mm^3
  Individual Tumor Measurements: 159.78 mm^3 and 55.83 mm^3 and 87.15 mm^3 and 117.63 mm^3
[1]; [14]
  % Inhibition Mean: 43.03%
  % Inhibition Median: 48.55%
  Tumor Mean Absolute: 145.51 mm^3
  Tumor Median Absolute: 124.47 mm^3
  Individual Tumor Measurements: 291.06 mm^3 and 42.03 mm^3 and 130.64 mm^3 and 118.31 mm^3
[1]; Group 4: 2 mg/kg bw IP QD×14
  growth delay: 6.61 days
  mean growth inhibition: 55.9
  mean tumor size (±S.E.) at termination (day 42): 145.51±52.32
  mean tumor size (±SE) at day 14 of dosing: 131.44±22.86
[1]; Group 4: 2 mg/kg bw IP QD×14, (tumor inhibition)
  % treatment/control: 10.28%
[1]; Group 4: 2 mg/kg bw IP QD×14, control 20.56 days
  tumor doubling time: 27.17 days
[1]; SBT-100 5 mg/kg bw i.p. BID×14
  mean tumor size (±S.E.) at termination (day 28): 91.72±33.17
  mean tumor size (±SE) at last day of dosing (Day 14): 83.81±22.65
[1]; SBT-100 5 mg/kg bw i.p. BID×14, (tumor inhibition)
  % treatment/control: 13.35%
[1]; SBT-100 5 mg/kg bw i.p. BID×14, control […] days
  tumor doubling time: 111.6 days
[1]; SBT-100 5 mg/kg bw i.p. BID×14, p=0.006
  mean tumor growth inhibition at the end of the study: 85.8%
[2]
  EC50: 19.02 ug/m
  EC90: 58.72 µg/mL
[3]
  % treatment/control: 74.8%
  mean tumor size (±S.E.) at termination (day 28): 601.83±131.51
  mean tumor size (±SE) at last day of dosing (Day 14): 364.14±51.64
[3]; control 14.57 days
  tumor doubling time: 18.19 days
[3]; p=0.29
  mean tumor growth inhibition at the end of the study: 26.6%
[4]; ARPE-19, 0.1 μg/well, 12 Hr
  pg VEGF-A per μg protein: 2.4 pg per μg protein
[4]; ARPE-19, 10 μg/well, 24 Hr
  pg VEGF-A per μg protein: 4.4 pg per μg protein
[4]; ARPE-19, 100 μg/mL, 12 hour treatment
  decrease in VEGF-A: 20.1%
[4]; ARPE-19, 100 μg/mL, 24 hour treatment
  decrease in VEGF-A: 7.5%
[4]; ARPE-19, 100 μg/mL, 48 hours
  pg VEGF-A/μg protein as % of the negative control: 11%
[4]; lower concentrations (10, 1 or 0.1 μg/ml)
  decrease in VEGF-A: not seen
[5]
  Absorbance: 0.68 and 1.2
[6]; 24 and 48 hours treatment, VHH13 and VHH69 at highest concentration, VHH14 at both concentrations
  effect on IL-6 induction of the STAT3 reporter: Inhibition of IL-6
[6]; 24 hours treatment prior to IL-6 induction
  decrease in RLU: greater than 10 fold
[6]; 48 hours treatment prior to IL-6 induction
  decrease in RLU: greater than 1,000 fold
